In the supplement of paper PMC4862054:

Tests used:
Conditions in all cases: incubation time: 72 h
BT-474 [1] = experiment: normalised response (% of control), CellTiter-Glo; higher = more viable cells (100 = DMSO, 0 = benzethonium chloride kill control)
Outline: (§1)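 In 384-well plates holding compound at 5 concentrations in 10-fold steps over a 10,000-fold range specific to each compound, breast cancer cell lines were seeded as 20 µl suspension and incubated 72 h. CellTox Green fluorescence was measured at 485/520 nm, after which CellTiter-Glo luminescence was measured following 10 min at room temperature. Plate signals were normalised to 0.1 % DMSO (100) and a positive kill control (0), and each value is the normalised signal at a single concentration.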

BT-549 [2] = experiment: as above
Outline: as §1

CAL-120 [3] = experiment: as above
Outline: as §1

CAL-148 [4] = experiment: as above
Outline: as §1

CAL-51 [5] = experiment: as above
Outline: as §1

CAL-85-1 [6] = experiment: as above
Outline: as §1

DU-4475 [7] = experiment: as above
Outline: as §1

HCC1143 [8] = experiment: as above
Outline: as §1

HCC1599 [9] = experiment: as above
Outline: as §1

HCC1937 [10] = experiment: as above
Outline: as §1

HDQ-P1 [11] = experiment: as above
Outline: as §1

Hs578T [12] = experiment: as above
Outline: as §1

MCF-10A = experiment: as above
Outline: as §1

MDA-MB-231 [13] = experiment: as above
Outline: as §1

MDA-MB-436 [14] = experiment: as above
Outline: as §1

MDA-MB-453 [15] = experiment: as above
Outline: as §1

MDA-MB-468 [16] = experiment: as above
Outline: as §1

MFM-223 [17] = experiment: as above
Outline: as §1

SK-BR-3 [18] = experiment: as above
Outline: as §1

BT-474 [19] = experiment: normalised viability (% of control), CellTiter-Blue; higher = more viable cells (100 = DMSO, 0 = benzethonium chloride kill control)
Outline: (§2)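 384-well plates were pre-loaded with compound in 5 µl medium before 20 µl of breast cancer cell suspension was seeded. Following 72 h incubation, 2.5 µl CellTiter-Blue reagent was added for 2 h at 37 °C. Fluorescence was read at 560/590 nm and plates were normalised to vehicle (100) and a positive kill control (0), checked by Z'-factor. Normalised viability is reported at a single listed concentration of the series.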

BT-549 [20] = experiment: as above
Outline: as §2

CAL-120 [21] = experiment: as above
Outline: as §2

CAL-148 [22] = experiment: as above
Outline: as §2

CAL-51 [23] = experiment: as above
Outline: as §2

CAL-85-1 [24] = experiment: as above
Outline: as §2

DU-4475 [25] = experiment: as above
Outline: as §2

HCC1143 [26] = experiment: as above
Outline: as §2

HCC1599 [27] = experiment: as above
Outline: as §2

HCC1937 [28] = experiment: as above
Outline: as §2

HDQ-P1 [29] = experiment: as above
Outline: as §2

Hs578T [30] = experiment: as above
Outline: as §2

MDA-MB-231 [31] = experiment: as above
Outline: as §2

MDA-MB-436 [32] = experiment: as above
Outline: as §2

MDA-MB-453 [33] = experiment: as above
Outline: as §2

MDA-MB-468 [34] = experiment: as above
Outline: as §2

MFM-223 [35] = experiment: as above
Outline: as §2

SK-BR-3 [36] = experiment: as above
Outline: as §2

Row | Structure (SMILES) | normalised response (BT-474 [1]) [%] | normalised response (BT-549 [2]) [%] | normalised response (CAL-120 [3]) [%] | normalised response (CAL-148 [4]) [%] | normalised response (CAL-51 [5]) [%] | normalised response (CAL-85-1 [6]) [%] | normalised response (DU-4475 [7]) [%] | normalised response (HCC1143 [8]) [%] | normalised response (HCC1599 [9]) [%] | normalised response (HCC1937 [10]) [%] | normalised response (HDQ-P1 [11]) [%] | normalised response (Hs578T [12]) [%] | normalised response (MCF-10A) [%] | normalised response (MDA-MB-231 [13]) [%] | normalised response (MDA-MB-436 [14]) [%] | normalised response (MDA-MB-453 [15]) [%] | normalised response (MDA-MB-468 [16]) [%] | normalised response (MFM-223 [17]) [%] | normalised response (SK-BR-3 [18]) [%] | normalised viability (BT-474 [19]) [%] | normalised viability (BT-549 [20]) [%] | normalised viability (CAL-120 [21]) [%] | normalised viability (CAL-148 [22]) [%] | normalised viability (CAL-51 [23]) [%] | normalised viability (CAL-85-1 [24]) [%] | normalised viability (DU-4475 [25]) [%] | normalised viability (HCC1143 [26]) [%] | normalised viability (HCC1599 [27]) [%] | normalised viability (HCC1937 [28]) [%] | normalised viability (HDQ-P1 [29]) [%] | normalised viability (Hs578T [30]) [%] | normalised viability (MDA-MB-231 [31]) [%] | normalised viability (MDA-MB-436 [32]) [%] | normalised viability (MDA-MB-453 [33]) [%] | normalised viability (MDA-MB-468 [34]) [%] | normalised viability (MFM-223 [35]) [%] | normalised viability (SK-BR-3 [36]) [%]
1 | CNC(=O)c1cc(Oc2ccc(NC(=O)Nc3ccc(Cl)c(C(F)(F)F)c3)c(F)c2)ccn1 [Regorafenib] (1 nM) | 95.7 | 99.9 | 94.1 | 94.2 | 90.1 | 104 | 102 | 98.5 | 110 | 96.4 | 100 | 99.5 | 104 | 100 | 99.9 | 115 | 114 | 97.2 | 112 | 91.4 | 102 | 89.7 | 103 | 96 | 88.9 | 121 | 100 | 131 | 83.5 | 88.5 | 84.9 | 101 | 104 | 105 | 108 | 106 | 100
2 | CO[C@H]1C[C@@H]2CC[C@@H](C)[C@@](O)(O2)C(=O)C(=O)N2CCCC[C@H]2C(=O)O[C@H]([C@H](C)C[C@@H]2CC[C@@H](OP(C)(C)=O)[C@H](OC)C2)CC(=O)[C@H](C)/C=C(\C)[C@@H](O)[C@@H](OC)C(=O)[C@H](C)C[C@H](C)/C=C/C=C/C=C/1C [Ridaforolimus] (0.1 nM) | 99.6 | 91.2 | 101 | 104 | 114 | 101 | 105 | 102 | 96.5 | 93.1 | 94.1 | 97.7 | 105 | 99.3 | 98.1 | 96.3 | 96.5 | 101 | 105 | 94 | 91 | 84.8 | 99.4 | 97.2 | 82.1 | 100 | 88 | 104 | 108 | 78.4 | 97.7 | 112 | 105 | 93 | 96.8 | 82.2 | 81.8
3 | c1ccc2c(CCNc3ccc(Nc4ccncc4)cc3)c[nH]c2c1 [Serdemetan] (1 nM) | 93.8 | 102 | 96.8 | 91 | 114 | 101 | 95.7 | 98.5 | 115 | 93.9 | 96.7 | 99.2 | 86.1 | 97.1 | 86.4 | 112 | 98.8 | 98.8 | 104 | 99.8 | 106 | 79 | 107 | 110 | 85.3 | 95.2 | 86.3 | 92.4 | 95.9 | 99.9 | 97.5 | 98.5 | 104 | 99.2 | 105 | 82.8 | 95
4 | CN(C)CCOc1ccc(/C(=C(/CCCl)c2ccccc2)c2ccccc2)cc1 [Toremifene] (1 nM) | 102 | 104 | 103 | 104 | 114 | 98.4 | 103 | 98.5 | 106 | 96.2 | 98.6 | 110 | 107 | 106 | 98.7 | 119 | 106 | 103 | 111 | 114 | 113 | 83.5 | 108 | 104 | 90.9 | 107 | 97.7 | 105 | 142 | 107 | 106 | 101 | 126 | 112 | 113 | 104 | 102
5 | CC(C)C[C@@H](C(=O)N[C@H](C(=O)OC1CCCC1)c1ccccc1)[C@H](O)C(=O)NO [Tosedostat] (1 nM) | 100 | 100 | 103 | 104 | 108 | 103 | 103 | 100 | 106 | 97.4 | 100 | 94.4 | 98.7 | 107 | 103 | 110 | 102 | 105 | 109 | 98.7 | 92.1 | 100 | 109 | 112 | 101 | 93.3 | 102 | 106 | 86.9 | 130 | 118 | 114 | 100 | 108 | 111 | 94.3 | 108
6 | COc1cc2/c(=N/c3ccc(Br)cc3F)nc[nH]c2cc1OCC1CCN(C)CC1 [Vandetanib] (1 nM) | 85.2 | 92.7 | 88.7 | 83.8 | 118 | 92.6 | 94.8 | 96.2 | 81.8 | 102 | 90.7 | 93.9 | 89.4 | 91.7 | 86.1 | 86 | 88.1 | 87 | 68.2 | 107 | 87.6 | 124 | 98.4 | 97 | 110 | 110 | 106 | 112 | 82.5 | 56.1 | 101 | 88.2 | 81.1 | 94.7 | 94.9 | 94.8 | 84
7 | COCC[n+]1c2c(n(Cc3cnccn3)c1C)C(=O)c1ccccc1C2=O [YM155] (1 nM) | 86.8 | 96 | 94.7 | 93.3 | 119 | 89.6 | 94.7 | 88.8 | 84.7 | 89.8 | 109 | 92.5 | 82.1 | 99.6 | 81.3 | 86.2 | 93.6 | 86.8 | 80.6 | 103 | 102 | 99.2 | 105 | 92.4 | 107 | 108 | 114 | 136 | 90.1 | 81.3 | 107 | 83 | 101 | 93.3 | 85.3 | 98.8 | 94.5
